Test results from US12060360B2, “Lysyl oxidase inhibitors” (The Institute of Cancer Research: Royal Cancer Hospital, priority 2017, dated 2024).

Key:
[1] = test system: PDAC TRP53R172H (p53 mut) cells (mouse pancreatic carcinoma); assay: PDAC allografts, primary tumour volume T/C; format: in vivo; details: 200 mg/kg po qd; ratio of average tumour volume treated/vehicle control; p<0.05
Experimental: All procedures involving animals were approved by the Animal Welfare and Ethical Review Body of the Institute of Cancer Research and Cancer Research UK Manchester Institute in accordance with National Home Office regulations under the Animals (Scientific Procedures) Act 1986 and according to the guidelines of the Committee of the National Cancer Research Institute Tumour size was determined by caliper measurements of tumour length, width and depth and volume was calculated as volume=0.5236×length×width×depth (mm).
PDAC allografts: CD1 nu/nu female mice at 6 weeks of age were inoculated subcutaneously in the right flank with 2×10^6 PDAC TRP53R172H (p53 mut) cells at 100 ul suspension per animal. In some examples, the oral dosing by metal gavage commences one day after cells inoculation, at 0.2 ml/20 g bodyweight per animal once daily for 2-4 weeks, with compound dissolved in 5.25% tween20/saline or 5% DMSO/water. In other examples, groups of 7-8 mice were assigned to treatment following stratified allocation of tumour volumes with a median size of circa 100 mm^3. […] Control animals received a similar dosage of vehicle (5.25% tween20/saline). Tumours and weights are measured twice weekly using calipers. At the end of the study the animals are culled, and samples taken, fixed or snap frozen in liquid nitrogen. Frozen samples kept at −80 degree centigrade until being analysed and the fixed samples stained according to the desired marker.
For therapeutic efficacy assessment, the ratio of average tumour volume between compound treated and vehicle control treated (T/C) is calculated. Reduction in tumour volume in the compound treated group compared to vehicle-treated control group results in T/C<1. The efficacy of LOX inhibitors described in this invention, as measured by T/C in a pancreatic cancer model, a colorectal cancer model and a breast cancer model is shown in Table 2 and is significant (p<0.05) for all the data presented.

[2] = test system: MMTV-PyMT breast transgenic model lung metastases; assay: MMTV-PyMT transgenic mouse breast cancer model, lung metastases quantification T/C; format: in vivo; details: 200 mg/kg po qd, treated/vehicle control, p<0.05
Experimental: MMTV-PyMT (Guy et al, 1992) (FVB) female mice were randomized by non-statistical methods to LOX inhibitor treatment groups from day 70 post-birth, when animals had no detectable tumour. Mice were treated daily by oral gavage with LOX inhibitor in vehicle, or daily vehicle (5% DMSO/2.5% Tween20 in water) by oral gavage. Tumour size was determined unblinded by caliper measurements of tumour length, width and depth and volume was calculated as 0.5236×length×width×depth (mm). In all experiments, mice were humanely killed and mammary tumours and lungs were collected when the primary tumours reached ethical limits or signs of ill health.
For lung metastases quantification, all mouse tissue samples were fixed in 10% formalin (Sigma) and embedded in paraffin. Samples were sectioned and hematoxylin and eosin (H&E) stained. Samples were imaged with a Leica CN400 slide scanner. Lung metastases were manually selected using Pen tool in ImageScope. Lung metastases number was counted and area was measured using ImageScope. The investigator was blinded to the experimental groups. The ratio of average metastases surface between compound treated and vehicle control treated (TIC) is calculated. The ratio of average metastases numbers between compound treated and vehicle control treated (T/C) is also calculated. Reduction in metastases area and/or in metastatses number in the compound treated group compared to vehicle-treated control group results in T/C<1. The antimetastatic efficacy of LOX inhibitors described in this invention, as measured by T/C in a model of breast cancer metastasising to lungs is shown in Table 2 and is significant (p<0.05) for all the data presented.

Q: How did the “T/C PDAC R172H (p53 mut) (mouse pancreatic carcinoma) - primary tumour” value [1] turn out when CCOc1ccc(N2C[C@H]3CN(CCCC#N)C[C@@H]2C(C)(C)C3)cc1 [Example 42, 4-((1R,5S)-6-(4-ethoxyphenyl)-9,9-dimethyl-3,6-diazabicyclo[3.2.2]nonan-3-yl)butanenitrile] was run?
A: The value was 0.44.

Q: What about the “T/C MMT-PyMT breast transgenic model - metastases b) Area” value ([2]; lung metastases area) of the same compound?
A: Its value is “b) 0.013”.

Q: And the “T/C MMT-PyMT breast transgenic model - metastases a) Count” value ([2]; lung metastases number)?
A: The value was “a) 0.16”.
